Source: paper PMC6842059 (ChemMedChem, 2019)

What was measured:
[1] = test system: MT-2 cells
[2] = in vitro; details: human

| Compound | selectivity index (CC50/IC50) [1] | CC50 [2] |
| --- | --- | --- |
| CC(C)CN(C[C@@H](O)[C@H](Cc1ccccc1)NC(=O)O[C@H]1CO[C@H]2OCC[C@H]21)S(=O)(=O)c1ccc(B(O)O)cc1 [Inhibitor 5, (4-(N-((2R,3S)-3-(((((3R,3aS,6aR)-hexahydrofuro[2,3-b]furan-3-yl)oxy)carbonyl)amino)-2-hydroxy-4-phenylbutyl)-N-isobutylsulfamoyl)phenyl)boronic acid] | > 2,040 | > 100 µM |
| CC(C)CN(C[C@@H](O)[C@H](Cc1ccccc1)NC(=O)O[C@H]1C2CO[C@H]3OC[C@@H]1C3C2)S(=O)(=O)c1ccc(B(O)O)cc1 (stereo partly drawn) [Inhibitor 6, (4-(N-((2R,3S)-3-(((((3S,7aS,8S)-Hexahydro-4H-3,5-methanofuro[2,3-b]pyran-8-yl)oxy)carbonyl)amino)-2-hydroxy-4-phenylbutyl)-N-isobutylsulfamoyl)phenyl)boronic acid] | > 2,650 | > 100 µM |
